This test deals with B103 cell line. Kind of test: In vitro percent protective effect against Amyloid Beta(A beta)-induced neurotoxicity in B103 cells. The format is functional, Rattus norvegicus. Further details: concentration or dose not given beside the values.
For `C[C@@H]1CC[C@]2(C(=O)O)CC[C@]3(C)C(=CCC4[C@@]5(C)CC(=O)[C@H](O)[C@@](C)(CO)C5CC[C@]43C)C2[C@H]1C` (stereo partly specified), the Protection amounted to 50%.
The result for `CC(=O)O[C@@H]1C[C@@]2(C)C(CC[C@]3(C)C2CC=C2C4[C@@H](C)[C@H](C)CC[C@]4(C(=O)O)CC[C@]23C)[C@](C)(CO)[C@H]1O` (stereo partly specified) reads 22%.
The result for `CCCCCCCCOCOC(=O)[C@]12CC[C@@H](C)[C@H](C)C1C1=CCC3[C@@]4(C)CC(O)[C@H](O)[C@@](C)(CO)C4CC[C@@]3(C)[C@]1(C)CC2` (stereo partly specified) reads 22%; that for `C[C@@H]1CC[C@]2(C(=O)O)CC[C@]3(C)C(=CCC4[C@@]5(C)C[C@@H](O)[C@@H]6OC(C)(C)OC[C@@]6(C)C5CC[C@]43C)C2[C@H]1C` (stereo partly specified), 66%; that for `COC(=O)[C@]12CC[C@@H](C)[C@H](C)C1C1=CCC3[C@@]4(C)C[C@@H](O)[C@H](O)[C@@](C)(CO)C4CC[C@@]3(C)[C@]1(C)CC2` (stereo partly specified), 58%.
Under `C[C@@H]1CC[C@]2(C(=O)O)CC[C@]3(C)C(=CCC4[C@@]5(C)CCCC(C)(C)C5CC[C@]43C)C2[C@H]1C` (stereo partly specified) stands 40%; under `C[C@@H]1CC[C@]2(C(=O)OC3CCCCO3)CC[C@]3(C)C(=CCC4[C@@]5(C)C[C@@H](O)[C@H](O)[C@@](C)(CO)C5CC[C@]43C)C2[C@H]1C` (stereo partly specified), 92%.
The molecule `C[C@H]1[C@H](C)CC[C@]2(C(=O)O)CC[C@]3(C)C(=CC[C@@H]4[C@@]5(C)CC[C@H](O)[C@@](C)(CO)[C@@H]5CC[C@]43C)[C@H]12` showed a Protection of 87%.
On to `C[C@H]1[C@H](C)CC[C@]2(C(=O)O)CC[C@]3(C)C(=CC[C@@H]4[C@@]5(C)C[C@@H](O)[C@H](O)[C@@](C)(CO)[C@@H]5CC[C@]43C)[C@H]12` [ASIATIC ACID], for which the Protection is given as 97%.
Under `C[C@H]1[C@H](C)CC[C@]2(C(=O)O[C@@H]3O[C@H](CO[C@@H]4O[C@H](CO)[C@@H](O[C@@H]5O[C@H](C)[C@H](O)[C@@H](O)[C@H]5O)[C@H](O)[C@H]4O)[C@@H](O)[C@H](O)[C@H]3O)CC[C@]3(C)C(=CC[C@@H]4[C@@]5(C)C[C@@H](O)[C@H](O)[C@@](C)(CO)[C@@H]5CC[C@]43C)[C@H]12` [ASIATICOSIDE] stands 24%; under `C[C@H]1[C@H](C)CC[C@]2(C(=O)O)CC[C@]3(C)C(=CC[C@@H]4[C@@]5(C)C[C@@H](O)[C@H](O)[C@@](C)(CO)[C@@H]5[C@H](O)C[C@]43C)[C@H]12` [MADECASSIC ACID], 56%.

Source of the values: ChEMBL document CHEMBL1132753, “Structure-activity relationship study of asiatic acid derivatives against beta amyloid (A beta)-induced neurotoxicity” (2000).
